# Laboratory results: US20250049735A1, “MEDICINE FOR STEATOHEPATITIS” (The University of Tokyo, priority 2021, published 2025)
# Read-outs that look alike come from different tables or passages of the source.
# Experiments:
# Tax-iIEC-KO mice = details: for concentration of betaine in the liver / concentration of choline in the liver: compared with control mice
# Description: Atp8b1^flox/flox mice were mated with villin-Cre/ERT2 transgenic mice (Stock No. 020282; The Jackson Laboratory), and Atp8b1^flox/+; villin-Cre/ERT2 mice in the obtained offsprings were then mated with Atp8b1^flox/flox mice to obtain Tamoxifen-induced, intestinal epithelial cell (IEC)-specific Atp8b1 knockout (Atp8b1Tax-iIEC-KO: Atp8b1^flox/flox; villin-Cre/ERT2) mice (Atp8b1 Tax-iIEC-KO mice). The resulting Atp8b1 Tax-iIEC-KO mice and littermate Atp8b1^flox/flox mice were used for animal experiments.
# (§1) ALT and AST were determined by automatic measurement with Dri-chem (FUJIFILM, Tokyo, Japan).
# The liver was cut into small pieces, was then fixed with 10% neutral buffered formalin, and was then embedded in paraffin. The small intestine was rinsed with PBS, was fixed with 10% neutral buffered formalin, was then cut into 2 segments (corresponding to the proximal side and the distal side), and was then opened longitudinally. The thus cut small intestine was opened with a toothpick, was immobilized with a pathological pin, was then fixed with 10% neutral buffered formalin, and was then embedded in paraffin. Paraffin sections (3 μm each) were prepared, and were then deparaffinized and rehydrated. Thereafter, the resulting paraffin sections were stained with hemotoxylin and eosin, and were then mounted in Entellan new (Merck, Branchburg, NJ).
# The concentrations of choline, betaine, dimethylglycine (N,N-dimethylglycine) and glycerophosphorylcholine (sn-glycero-3-phosphocholine) in plasma were determined by liquid chromatography/tandem mass spectrometry (LC/MS/MS) assay. The sample was mixed with 98-fold volume of ethanol and 1-fold volume of the internal standard (IS) solution (10 μmol/L choline in water, 10 μmol/L glycerophosphorylcholine in water, and 1 μmol/L betaine in water). After vortex mixing, the sample was centrifuged at 21,500×g at 4° C. for 5 minutes. The obtained supernatant was injected into a UHPLC Nexera liquid chromatography system (Shimadzu co., Kyoto, Japan) equipped with an Ascentis Express HILIC column (2.1×50 mm, 2.7 μm, Merck KGaA, Darmstadt, Germany), and was then maintained at 4° C. The analyte was separated from the internal standard by gradient elution of mobile phase A (10 mmol/L ammonium acetate in water) and of mobile phase B (acetonitrile/water mixture) (99:1, v/v)). The gradient elution was carried out under the following conditions: 0-2 min., 82.5% B; 2-4 min., 82.5% to 5% B and 4-7 min. 5% B with a flow rate of 0.6 mL/min. The eluate was directly subjected to electrospray ionization under a positive ion mode using a 5500QTRAP mass spectrometer (Sciex pte. ltd., Toronto, Canada). All target molecules were scanned by selected reaction monitoring (SRM) mode.
# Eight-week-old Tax-iIEC-KO mice and control mice were started to be fed with a control diet, a 0.3% choline supplemented diet, or a 1% choline supplemented diet, and at the same time, the Tax-iIEC-KO mice and the control mice were administered with 1 mg/day of Tamoxifen for 5 consecutive days. Thereafter, the mice were dissected at 10 weeks of age.
# Atp8b1 E-KO mice = details: mother mice fed 1% choline supplemented diet; pups at 4 weeks of age
# Experimental: All animal experiments were approved by and performed in accordance with the guidelines of the animal experiment committee of the University of Tokyo. To generate Atp8b1^flox/flox mice, ICR and C57BL/6J mice were purchased from Charles River Laboratories International, Inc. (Yokohama, Japan). Mice were kept under pathogen-free conditions at a room temperature of 23.5° C.±2.5° C. and a relative humidity of 52.5%+12.5% under a 14-hour light: 10-hour dark cycle. […] In order to supplement choline to pups, mother mice were fed with a 1.0% choline supplemented diet (D20011404, Research Diets) until weaning of their pups.
# Male mice harboring the designed floxed Atp8b1 allele with flox mutation were bred with female C57BL/6 mice, and the heterozygous floxed (Atp8b1^flox/+) mice in the obtained offsprings were intercrossed to produce homozygous floxed (Atp8b1^flox/flox) mice. The Atp8b1^flox/flox mice were crossed with villin-Cre transgenic mice (Stock No: 021504; The Jackson Laboratory, Bar Harbor, ME), and Atp8b1^flox/+; villin-Cre mice in the obtained offsprings were mated with Atp8b1^flox/flox mice to obtain intestinal epithelial cell (IEC)-specific Atp8b1 knockout (Atp8b1 IEC-KO; Atp8b1^flox/flox; villin-Cre) mice (Atp8b1 E-KO). Male Atp8b1 E-KO were mated with female Atp8b1^flox/flox mice, and the resulting Atp8b1 E-KO mice and littermate Atp8b1^flox/flox mice were used for animal experiments.
# Male 3 to 4-week-old intestinal epithelial cell-specific Atp8b1 knockout (Atp8b1 E-KO) mice and control mice (littermate Flox/Flox mice) underwent laparotomy under isoflurane anesthesia. […] The blood was centrifuged at 1,700×g for 15 minutes, and plasma was separated. Thereafter, the plasma was flash-frozen in liquid nitrogen and was stored at −80° C. The liver was excised and was then flash-frozen in liquid nitrogen, and thereafter, the thus frozen liver was stored at −80° C., or was used for histological and electron microscopic analyses. The small intestine was excised, was then rinsed with cold PBS containing 0.5m M taurocholic acid, and was then used for histological and electron microscopic analyses, or for preparation of epithelial cells. To isolate epithelial cells from small intestine, TTDR kit (Becton Dickinson, Becton Drive Franklin Lakes, NJ) was used. According to the manufacturer's instructions included with the kit, the small intestine was opened longitudinally, was sliced into small fragments with a size of roughly 2 mm. The fragments were incubated with 1×TTDR diluted with DMEM (11995-065, gibco) at 37° C. for 30 minutes, and the resulting fragments were then mixed with 2 mM EDTA/PBS containing 1% BSA. The thus obtained mixture was filtrated through a 70 μm cell strainer (VWR21008-952; Corning Inc, Corning, NY), and was then centrifugated at 250×g at 4° C. for 10 minutes. The obtained cell pellets were incubated with 1×Pharm Lyse (Becton Dickinson, Becton Drive Franklin Lakes, NJ) at room temperature for 15 minutes for the lysis of red blood cells, and the resultant was then mixed with 2 mM EDTA/PBS containing 1% BSA. The thus obtained mixture was centrifuged at 250×g at 4° C. for 10 minutes. The prepared epithelial cells were flash frozen in liquid nitrogen, and were then stored at −80° C.
# as §1
# The liver was cut into small pieces, was then fixed with 10% neutral buffered formalin, and was then embedded in paraffin. […]
# [1] = 0.3% choline supplemented diet, 8 to 10 weeks of age
# [2] = choline supplemented diet (0.3% or 1%) from 8 to 10 weeks of age, Tamoxifen 1 mg/day for 5 days
structure (smiles),measurement,setting,value
C[N+](C)(C)CCO [choline],increase in liver injury markers (AST and ALT),Tax-iIEC-KO mice; [1],suppressed
same,onset of steatohepatitis (liver pathological images),Tax-iIEC-KO mice; [1],suppressed
same,concentration of betaine in the liver,Tax-iIEC-KO mice; 0.3% choline supplemented diet,recovered
same,concentration of choline in the liver,Tax-iIEC-KO mice; 0.3% choline supplemented diet,recovered
same,increase in liver injury markers (AST and ALT),"Tax-iIEC-KO mice; 1% choline supplemented diet, 8 to 10 weeks of age",suppressed
same,concentration of betaine in the liver,Tax-iIEC-KO mice; 1% choline supplemented diet,recovered
same,concentration of choline in the liver,Tax-iIEC-KO mice; 1% choline supplemented diet,recovered
same,body weight,Tax-iIEC-KO mice; [2],not changed
same,small intestine length,Tax-iIEC-KO mice; [2],not changed
same,amount of neutrophils (MPO positive cells) in the liver,Atp8b1 E-KO mice,reduced
same,amount of tissue macrophages (F4/80 positive cells) in the liver,Atp8b1 E-KO mice,reduced
same,body weight,Atp8b1 E-KO mice,No changes were observed
same,increase in liver weight observed in Atp8b1 E-KO pups,Atp8b1 E-KO mice,resolved
same,small intestine length,Atp8b1 E-KO mice,No changes were observed
